Measurements reported in PubChem BioAssay AID1919010 (Molecular Pharmacology Branch, DTP, NCI, 2023).

System: Hs578T complex spheroid growth, percent test/control
Assay: Anticancer human tumor Hs578T cell line growth inhibition [AhR];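 also: luminescent viability signal as a proxy for spheroid growth; spheroids exposed to agents for one week after three days of growth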
Conditions: for IC50: curve of first compound; for viability, T/C: stronger effect = lower value
Method in brief: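 Agents were dosed in half-log steps down from roughly clinical Cmax, or from 10 microM where Cmax was unknown, alone and with AhR antagonists. Read-out: percent test/control growth of tumor spheroids containing HUVEC and MSC stromal cells.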

[1] = second compound 0.1 µM, first compound 0.00949 µM
[2] = second compound 0.1 µM, first compound 0.03 µM
[3] = second compound 0.1 µM, first compound 0.0949 µM
[4] = second compound 0.1 µM, first compound 0.3 µM
[5] = second compound 0.316 µM, first compound 0.00949 µM
[6] = second compound 0.316 µM, first compound 0.03 µM
[7] = second compound 0.316 µM, first compound 0.0949 µM
[8] = second compound 0.316 µM, first compound 0.3 µM
[9] = second compound 1 µM, first compound 0.00949 µM
[10] = second compound 1 µM, first compound 0.03 µM
[11] = second compound 1 µM, first compound 0.0949 µM
[12] = second compound 1 µM, first compound 0.3 µM
[13] = second compound 3.16 µM, first compound 0.00949 µM
[14] = second compound 3.16 µM, first compound 0.03 µM
[15] = second compound 3.16 µM, first compound 0.0949 µM
[16] = second compound 3.16 µM, first compound 0.3 µM
[17] = second compound 10 µM, first compound 0.00949 µM
[18] = second compound 10 µM, first compound 0.03 µM
[19] = second compound 10 µM, first compound 0.0949 µM
[20] = second compound 10 µM, first compound 0.3 µM

COc1ccc([C@@H](O)c2cc(-c3ncnc4cc(N5CCOCC5)ccc34)c(F)cc2Cl)nn1 + Cc1ccccc1N=Nc1ccc(NC(=O)c2ccnn2C)c(C)c1
IC50 (second compound 0.1 µM): 3400 nM | IC50 (second compound 0.316 µM): 4790 nM | IC50 (second compound 1 µM): 3330 nM | IC50 (second compound 3.16 µM): 2870 nM | IC50 (second compound 10 µM): 3080 nM | viability, T/C (second compound 0.1 µM, first compound 0.0316 µM): 106% | viability, T/C (second compound 0.1 µM, first compound 0.1 µM): 112% | viability, T/C (second compound 0.1 µM, first compound 0.316 µM): 92.8% | viability, T/C (second compound 0.1 µM, first compound 1 µM): 82.6% | viability, T/C (second compound 0.1 µM, first compound 3.16 µM): 49.5% | viability, T/C (second compound 0.1 µM, first compound 10 µM): 32.2% | viability, T/C (second compound 0.316 µM, first compound 0.0316 µM): 116% | viability, T/C (second compound 0.316 µM, first compound 0.1 µM): 108% | viability, T/C (second compound 0.316 µM, first compound 0.316 µM): 99.4% | viability, T/C (second compound 0.316 µM, first compound 1 µM): 89.8% | viability, T/C (second compound 0.316 µM, first compound 3.16 µM): 58.4% | viability, T/C (second compound 0.316 µM, first compound 10 µM): 31.8% | viability, T/C (second compound 1 µM, first compound 0.0316 µM): 107% | viability, T/C (second compound 1 µM, first compound 0.1 µM): 106% | viability, T/C (second compound 1 µM, first compound 0.316 µM): 100% | viability, T/C (second compound 1 µM, first compound 1 µM): 80.3% | viability, T/C (second compound 1 µM, first compound 3.16 µM): 50.8% | viability, T/C (second compound 1 µM, first compound 10 µM): 34.5% | viability, T/C (second compound 3.16 µM, first compound 0.0316 µM): 98.7% | viability, T/C (second compound 3.16 µM, first compound 0.1 µM): 93.2% | viability, T/C (second compound 3.16 µM, first compound 0.316 µM): 86.9% | viability, T/C (second compound 3.16 µM, first compound 1 µM): 77.8% | viability, T/C (second compound 3.16 µM, first compound 3.16 µM): 46.1% | viability, T/C (second compound 3.16 µM, first compound 10 µM): 30.5% | viability, T/C (second compound 10 µM, first compound 0.0316 µM): 74.3% | viability, T/C (second compound 10 µM, first compound 0.1 µM): 68.2% | viability, T/C (second compound 10 µM, first compound 0.316 µM): 73.9% | viability, T/C (second compound 10 µM, first compound 1 µM): 63.1% | viability, T/C (second compound 10 µM, first compound 3.16 µM): 50.1% | viability, T/C (second compound 10 µM, first compound 10 µM): 32.9%

Nc1ncn(C2CC(O)C(CO)S2)c(=O)n1 (stereo not given) + Cc1ccccc1N=Nc1ccc(NC(=O)c2ccnn2C)c(C)c1
IC50 (second compound 0.1 µM): > 300 nM | IC50 (second compound 0.316 µM): > 300 nM | IC50 (second compound 1 µM): > 300 nM | IC50 (second compound 3.16 µM): > 300 nM | IC50 (second compound 10 µM): > 300 nM | viability, T/C (second compound 0.1 µM, first compound 0.000949 µM): 103% | viability, T/C (second compound 0.1 µM, first compound 0.003 µM): 109% | viability, T/C [1]: 102% | viability, T/C [2]: 99.8% | viability, T/C [3]: 98.1% | viability, T/C [4]: 85% | viability, T/C (second compound 0.316 µM, first compound 0.000949 µM): 117% | viability, T/C (second compound 0.316 µM, first compound 0.003 µM): 101% | viability, T/C [5]: 103% | viability, T/C [6]: 102% | viability, T/C [7]: 94.3% | viability, T/C [8]: 96.5% | viability, T/C (second compound 1 µM, first compound 0.000949 µM): 106% | viability, T/C (second compound 1 µM, first compound 0.003 µM): 112% | viability, T/C [9]: 106% | viability, T/C [10]: 90.5% | viability, T/C [11]: 94.8% | viability, T/C [12]: 84% | viability, T/C (second compound 3.16 µM, first compound 0.000949 µM): 83% | viability, T/C (second compound 3.16 µM, first compound 0.003 µM): 98.8% | viability, T/C [13]: 94.7% | viability, T/C [14]: 83.9% | viability, T/C [15]: 90.7% | viability, T/C [16]: 87.2% | viability, T/C (second compound 10 µM, first compound 0.000949 µM): 65.3% | viability, T/C (second compound 10 µM, first compound 0.003 µM): 67% | viability, T/C [17]: 68% | viability, T/C [18]: 64% | viability, T/C [19]: 69.1% | viability, T/C [20]: 66.6%

O=C(C=Cn1cnc(-c2cc(C(F)(F)F)cc(C(F)(F)F)c2)n1)NNc1cnccn1 + Cc1ccccc1N=Nc1ccc(NC(=O)c2ccnn2C)c(C)c1
IC50 (second compound 0.1 µM): 177 nM | IC50 (second compound 0.316 µM): 184 nM | IC50 (second compound 1 µM): 165 nM | IC50 (second compound 3.16 µM): 171 nM | IC50 (second compound 10 µM): 84.5 nM | viability, T/C [1]: 85% | viability, T/C [2]: 90.5% | viability, T/C [3]: 72.8% | viability, T/C [4]: 30.3% | viability, T/C (second compound 0.1 µM, first compound 0.949 µM): 11.2% | viability, T/C (second compound 0.1 µM, first compound 3 µM): 10.7% | viability, T/C [5]: 91.6% | viability, T/C [6]: 88.5% | viability, T/C [7]: 76.9% | viability, T/C [8]: 30.3% | viability, T/C (second compound 0.316 µM, first compound 0.949 µM): 8.26% | viability, T/C (second compound 0.316 µM, first compound 3 µM): 10.9% | viability, T/C [9]: 87% | viability, T/C [10]: 82.5% | viability, T/C [11]: 68.8% | viability, T/C [12]: 30.2% | viability, T/C (second compound 1 µM, first compound 0.949 µM): 10.4% | viability, T/C (second compound 1 µM, first compound 3 µM): 13.2% | viability, T/C [13]: 84% | viability, T/C [14]: 79.8% | viability, T/C [15]: 70.7% | viability, T/C [16]: 30.8% | viability, T/C (second compound 3.16 µM, first compound 0.949 µM): 9.79% | viability, T/C (second compound 3.16 µM, first compound 3 µM): 13% | viability, T/C [17]: 68% | viability, T/C [18]: 64.2% | viability, T/C [19]: 47% | viability, T/C [20]: 29.6% | viability, T/C (second compound 10 µM, first compound 0.949 µM): 11.9% | viability, T/C (second compound 10 µM, first compound 3 µM): 12.1%
